# Assays:
# pUCp53 DNA = assay: PCR with additional nucleotides (FIG. 2); format: biochemical; settings: labeled nucleotide replaces the normal dNTP; 0.2 mM MnCl2; primers P53SNP22C-51F and P53SNP22G131R
# Procedure: (§1) Polymerase chain reaction (PCR) mixtures (20 μl) contained 20 mM Tris-HCL (pH 8.75), 10 mM KCL, 10 mM (NH4)2SO4, 2 mM MgSO4, 1 mg/ml bovine serum albumin and 0.1% (v/v) Triton X-100. The final nucleotide concentrations were 20 μM each, and 2.5 units of the DNA polymerase were used for each reaction. The initial template DNA (1–5 ng) was either pUC18 or pUCp53 (Amersham Biosciences). The initial amount of primer was 2 μmol each, and 2.5 units of the indicated DNA polymerase was used. Reactions were carried out for 15 thermal cycles of 90° C., 30 sec.; 55° C., 60 sec.; and 72° C., 300 sec. Most PCR reactions also included MnCl2 at a final concentration of 0.08–0.2 mM. Reaction products were loaded onto 1.6% agarose gels. The gels were stained with SYBR Gold (Molecular Probes) according to the manufacturers' instructions and scanned at 532 nm using a Typhoon fluorescence scanner (Amersham Biosciences). Gel size markers were a 100 bp ladder (Amersham Biosciences).
# (§2) For both figures, the amplification reaction loaded in lane 1 was performed with normal dNTPs and without MnCl2. For the lanes marked 2, the dTTP was replaced by dT4P-DDAO and the reactions contained 0.2 mM MnCl2. For the lanes marked 3, the dGTP was replaced by dG4P-DDAO, and for the lanes marked 4, the dGTP was replaced by dG4P-MeCoumarin again with 0.2 mM MnCl2.
# pUC18 DNA = assay: PCR with additional nucleotides, template and primers (FIG. 3); format: biochemical; settings: labeled nucleotide replaces the normal dNTP; 0.2 mM MnCl2; −21 Forward and −28 Reverse primers
# Procedure: as §1, §2
# KOD XL DNA polymerase = assay: PCR amplification of pUCp53 target with terminal-phosphate labeled nucleotide; format: biochemical; settings: same conditions as FIG. 1, DDAO-dT4P replaced dTTP
# Procedure: as §1
# (§3) The DNA polymerases used for these experiments included Taq DNA polymerase, Thermo Sequenase DNA polymerase (Amersham Biosciences), Tba exo-DNA polymerase (from Thermococcus barosii, U.S. Pat. No. 5,602,011 with D141A and E143A amino acid substitutions U.S. Pat. No. 5,882,904), Pfu DNA polymerase (Strategene), KOD XL DNA polymerase (Novagen) and Deep Vent DNA polymerase (New England BioLabs). […]
# Pfu DNA polymerase = target: T1, Pfu DNA polymerase (Pyrococcus furiosus, UniProt P61875); assay: as above; format: biochemical; settings: same conditions as FIG. 1, DDAO-dT4P replaced dTTP
# T1 construct: purchased Strategene (so in the source); Stratagene)
# T1 sequence (P61875 1-775): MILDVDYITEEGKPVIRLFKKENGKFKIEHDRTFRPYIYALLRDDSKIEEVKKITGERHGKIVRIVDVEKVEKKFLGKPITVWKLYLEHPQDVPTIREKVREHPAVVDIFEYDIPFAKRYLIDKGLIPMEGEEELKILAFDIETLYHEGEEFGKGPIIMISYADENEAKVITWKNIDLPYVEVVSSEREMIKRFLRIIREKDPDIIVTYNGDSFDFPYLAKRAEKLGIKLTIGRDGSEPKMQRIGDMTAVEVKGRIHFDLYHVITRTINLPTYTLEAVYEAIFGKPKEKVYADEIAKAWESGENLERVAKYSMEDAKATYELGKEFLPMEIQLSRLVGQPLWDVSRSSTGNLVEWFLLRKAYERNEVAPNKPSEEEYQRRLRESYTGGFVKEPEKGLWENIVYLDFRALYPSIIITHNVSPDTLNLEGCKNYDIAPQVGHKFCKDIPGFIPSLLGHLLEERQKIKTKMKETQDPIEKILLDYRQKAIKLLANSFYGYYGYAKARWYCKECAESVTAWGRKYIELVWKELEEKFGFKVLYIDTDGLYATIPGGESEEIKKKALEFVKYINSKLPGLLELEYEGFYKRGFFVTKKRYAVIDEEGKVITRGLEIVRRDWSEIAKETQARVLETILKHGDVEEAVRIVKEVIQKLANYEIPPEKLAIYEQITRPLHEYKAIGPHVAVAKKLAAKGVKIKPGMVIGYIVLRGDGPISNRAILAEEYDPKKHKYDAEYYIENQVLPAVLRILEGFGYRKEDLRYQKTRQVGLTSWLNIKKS
# Procedure: as §1, §3
# Phi29 DNA polymerase = target: T2, Phi29 DNA polymerase (Bacillus phage phi29, UniProt P03680); assay: Rolling circle amplification of salmon sperm chromosomal DNA with terminal-phosphate labeled/blocked nucleoside polyphosphates; format: biochemical; settings: 50 μm dT4P-DDAO with dA4P-Me, dG4P-Me, dC4P-Me, BAP, 30° C.
# T2 sequence (P03680 1-575): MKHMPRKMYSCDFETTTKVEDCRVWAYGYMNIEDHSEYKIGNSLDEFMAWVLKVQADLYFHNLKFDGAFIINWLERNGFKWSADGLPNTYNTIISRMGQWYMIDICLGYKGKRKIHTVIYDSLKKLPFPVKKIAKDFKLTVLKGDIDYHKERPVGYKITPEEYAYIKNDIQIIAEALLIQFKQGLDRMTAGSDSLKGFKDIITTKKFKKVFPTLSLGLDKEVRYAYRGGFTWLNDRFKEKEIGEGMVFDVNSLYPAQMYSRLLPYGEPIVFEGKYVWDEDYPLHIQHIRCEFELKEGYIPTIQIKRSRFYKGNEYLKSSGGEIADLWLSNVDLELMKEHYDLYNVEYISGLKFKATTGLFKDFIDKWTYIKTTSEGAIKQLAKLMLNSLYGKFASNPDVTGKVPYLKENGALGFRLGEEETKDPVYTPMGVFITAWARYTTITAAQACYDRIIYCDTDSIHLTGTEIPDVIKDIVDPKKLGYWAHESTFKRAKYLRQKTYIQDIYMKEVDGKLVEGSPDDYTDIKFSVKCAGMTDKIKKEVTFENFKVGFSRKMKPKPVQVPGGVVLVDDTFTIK
# Procedure: Varying amounts of denatured salmon sperm chromosomal DNA was taken in 25 mM Tris: borate buffer, pH 8.0, containing 5 mM ammonium sulfate, 75 mM NaCl, 5 mM MgCl2, 1 mM MnSO4, 0.01% Tween-20, 400 ng Phi29 DNA polymerase, 40 μm nuclease resistant random hexamers, 0.03 units of BAP and 50 μm each of dA4P-Me, dG4P-Me, dC4P-Me and dT4P-DDAO. Reactions were incubated at 30° C. in a Tecan fluorescent plate reader and were read every five minutes at excitation and emission wavelengths optimized for DDAO. Raw fluorescence counts are plotted as a function of time.
# Taq DNA polymerase = Taq DNA polymerase (Thermus aquaticus, UniProt P19821); assay: PCR amplification of pUCp53 target with terminal-phosphate labeled nucleotide, gel and fluorescence detection; format: biochemical; settings: lane 2 of FIG. 1, 0.2 mM MnCl2
# Procedure: Polymerase chain reaction (PCR) mixtures (20 μl) contained 20 mM Tris-HCL (pH 8.75), 10 mM KCL, 10 mM (NH4)2SO4, 2 mM MgSO4, 1 mg/ml bovine serum albumin and 0.1% (v/v) Triton X-100. The final nucleotide concentrations were 20 μM each, and 2.5 units of the DNA polymerase were used for each reaction. The initial template DNA (1–5 ng) was either pUC18 or pUCp53 (Amersham Biosciences). The initial amount of primer was 2 μmol each, and 2.5 units of the indicated DNA polymerase was used. Reactions were carried out for 15 thermal cycles of 90° C., 30 sec.; 55° C., 60 sec.; and 72° C., 300 sec. Most PCR reactions also included MnCl2 at a final concentration of 0.08–0.2 mM. Reaction products were loaded onto 1.6% agarose gels. The gels were stained with SYBR Gold (Molecular Probes) according to the manufacturers' instructions and scanned at 532 nm using a Typhoon fluorescence scanner (Amersham Biosciences). Gel size markers were a 100 bp ladder (Amersham Biosciences). […]
# (§4) Then the fluorescence was determined using a FarCYte fluorescence plate reader (Amersham Biosciences) using 650 nm excitation and 670 nm emission. […] The reaction product of Tba exo-DNA polymerase gave a reading of 31,000 fluorescence units.
# Tba exo-DNA polymerase = assay: as above; format: biochemical, Thermococcus barosii
# Procedure: as §1
# The DNA polymerases used for these experiments included Taq DNA polymerase, Thermo Sequenase DNA polymerase (Amersham Biosciences), Tba exo-DNA polymerase (from Thermococcus barosii, U.S. Pat. No. 5,602,011 with D141A and E143A amino acid substitutions U.S. Pat. No. 5,882,904), Pfu DNA polymerase (Strategene), KOD XL DNA polymerase (Novagen) and Deep Vent DNA polymerase (New England BioLabs).
# For this experiment, either Taq DNA polymerase (lanes 1–3, 12), Thermo Sequenase (Amersham Biosciences) DNA polymerase (lanes 7–9, 11) or Tba exo-DNA polymerase (lanes 4–6, 10) were used. The MnCl2 concentration was 0 mM for the reactions resolved in lanes 1, 4, 7 and 10–12; 0.2 mM in lanes 2, 5, and 8; 0.4 mM in lanes 3, 6 and 9. For all samples, the template DNA was pUCp53 and the primers were P53SNP22C-51F and P53SNP22G131R. […]
# as §4
# [1] = Non-enzymatic hydrolysis of terminal-phosphate labeled nucleoside polyphosphate on thermal cycling, effect of glycerol; format: physicochemical; settings: 5% glycerol; high temperatures
# Procedure: Seventy μl samples containing 50 mM Hepes, pH 8.0, 5 mM MgCl2, 0.5 mM MnCl2, 0.01% Tween-20, 1 μm ddT4P-EtFl, 100 nM primer/template, 0.0036 units/μl SAP with or without 5% glycerol were cycled as follows: 95° C., 30 sec and 50° C., 3 min, repeat 10 times. Amount of free dye formed was checked in a fluorimeter.
# Sequence of Taq DNA polymerase (P19821 whole entry): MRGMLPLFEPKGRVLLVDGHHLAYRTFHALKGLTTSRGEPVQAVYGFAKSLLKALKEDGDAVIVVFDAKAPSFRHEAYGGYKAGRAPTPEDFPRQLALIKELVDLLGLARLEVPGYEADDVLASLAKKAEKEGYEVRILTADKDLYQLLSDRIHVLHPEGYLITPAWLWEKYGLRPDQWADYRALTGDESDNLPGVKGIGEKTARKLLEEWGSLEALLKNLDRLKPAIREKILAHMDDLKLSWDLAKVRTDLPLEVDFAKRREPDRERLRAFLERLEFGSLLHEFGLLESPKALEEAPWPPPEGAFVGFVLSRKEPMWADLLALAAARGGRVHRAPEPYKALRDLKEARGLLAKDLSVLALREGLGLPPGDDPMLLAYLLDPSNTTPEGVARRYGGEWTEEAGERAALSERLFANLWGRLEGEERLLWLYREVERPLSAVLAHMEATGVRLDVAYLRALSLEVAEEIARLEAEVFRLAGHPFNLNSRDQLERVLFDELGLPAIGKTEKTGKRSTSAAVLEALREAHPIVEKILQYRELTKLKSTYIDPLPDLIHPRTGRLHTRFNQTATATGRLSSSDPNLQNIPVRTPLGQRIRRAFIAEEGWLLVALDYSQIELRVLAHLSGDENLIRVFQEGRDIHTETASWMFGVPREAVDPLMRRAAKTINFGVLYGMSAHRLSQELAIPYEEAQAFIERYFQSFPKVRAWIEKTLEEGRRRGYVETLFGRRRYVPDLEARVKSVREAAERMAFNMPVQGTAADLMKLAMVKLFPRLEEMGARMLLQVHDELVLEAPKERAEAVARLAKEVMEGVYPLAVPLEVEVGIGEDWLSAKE
smiles,measurement,setting,value
"CC1(C)C2=C(Cl)C(=O)C(Cl)=CC2=Nc2ccc(OP(=O)(O)OP(=O)(O)OP(=O)(O)OP(=O)(O)OC[C@H]3OC(n4cnc5c(=O)[nH]c(N)nc54)CC3O)cc21 (stereo partly shown) [dG4P-DDAO, δ-9H(1,3-dichloro-9,9-dimethylacridin-2-one-7-yl)-deoxyguanosine-5′-tetraphosphate]",PCR amplification product on gel,pUCp53 DNA,successfully produced product of the expected size
same,PCR amplification product on gel,pUC18 DNA,successfully produced product of the expected size
"Cc1cc(=O)oc2cc(OP(=O)(O)OP(=O)(O)OP(=O)(O)OP(=O)(O)OC[C@H]3O[C@@H](n4cnc5c(=O)[nH]c(N)nc54)C[C@@H]3O)ccc12 [dG4P-MeCoumarin, 2′-Deoxyguanosine-5′-(δ-7-(4-methylumbelliferone)) tetraphosphate]",PCR amplification product on gel,pUCp53 DNA,successfully produced product of the expected size
same,PCR amplification product on gel,pUC18 DNA,successfully produced product of the expected size
"Cc1cn([C@H]2CC(O)[C@@H](COP(=O)(O)OP(=O)(O)OP(=O)(O)OP(=O)(O)Oc3ccc4c(c3)C(C)(C)C3=C(Cl)C(=O)C(Cl)=CC3=N4)O2)c(=O)[nH]c1=O (stereo partly shown) [dT4P-DDAO, δ-9H(1,3-dichloro-9,9-dimethylacridin-2-one-7-yl)-deoxythymidine-5′-tetraphosphate]",PCR amplification product on gel,pUCp53 DNA,successfully produced product of the expected size
same,PCR amplification product on gel,pUC18 DNA,successfully produced product of the expected size
same,PCR product,KOD XL DNA polymerase,PCR product is made
same,PCR product,Pfu DNA polymerase,PCR product is made
same,rate of product formation (slope 20–40 minutes) versus amount of input DNA,Phi29 DNA polymerase; FIG. 10,linear correlation
same,fluorescence signal,"Phi29 DNA polymerase; absence of input DNA, FIG. 9",no signal is produced
same,PCR product,Taq DNA polymerase; DDAO-dT4P replaced dTTP,little or no detectable PCR product
same,fluorescence reading of PCR reaction product after shrimp alkaline phosphatase,"Taq DNA polymerase; 650 nm excitation, 670 nm emission",5500 fluorescence units
same,increase of PCR yield in the presence of MnCl2,"Tba exo-DNA polymerase; 0.2–0.4 mM MnCl2 versus 0 mM, DDAO-dT4P replaced dTTP",at least 5 fold
same,PCR product on agarose gel,"Tba exo-DNA polymerase; DDAO-dT4P replaced dTTP, pUCp53 template, 15 thermal cycles, FIG. 1",significant amounts of PCR product were made
same,fluorescence reading of PCR reaction product after shrimp alkaline phosphatase,"Tba exo-DNA polymerase; lane 5 of FIG. 1, 0.2 mM MnCl2, 650 nm excitation, 670 nm emission","31,000 fluorescence units"
OCC(O)CO [glycerol],effect of additive on degradation of ddT4P-EtFl caused by manganese,[1],reduces the amount of degradation caused by manganese

# Reference: patent US7125671B2, “Nucleic acid amplification with terminal-phosphate labeled nucleotides” (GE Healthcare Bio-Sciences Corp., priority 2003, dated 2006)
